In US9586896B2, “Nitroxyl donors with improved therapeutic index” (Cardioxyl Pharmaceuticals, Inc., priority 2013, dated 2017):
Read-outs that look alike come from different tables or passages of the source.

How the values were obtained:
beagle dogs = test: 24-hour continuous infusion, canine peripheral (cephalic) vein model, clinical pathology; assay type: in vivo; conditions: for NOAEL (μg/kg/min), clinical pathology markers: 24 hour i.v. infusion, CAPTISOL 7% w/v pH 4, WBC, fibrinogen, CRP, molar equivalent dose rates to CXL-1020
Description: After 24 hours of infusion, clinical pathology changes similar to those observed in previous studies using an implanted central catheter were detected.
Studies were conducted in male and female beagle dogs. Animals were allowed free access to drinking water and a commercial canine diet under standard laboratory conditions. Animals were fasted prior to blood sample collections when indicated by the study protocol. Fluorescent lighting was provided via an automatic timer for approximately 12 hours per day. On occasion, the dark cycle was interrupted intermittently due to study-related activities. Temperature and humidity were monitored and recorded daily and maintained to the maximum extent possible between 64° F. to 84° F. and 30% to 70%, respectively. The dogs were acclimated for a period of at least 1 week. During this period, the animals were weighed weekly and observed with respect to general health and any signs of disease. The animals were acclimated to wearing a jacket for at least three days prior to dose administration. Additionally, the animals were also acclimated to wearing an Elizabethan collar (e-collar) during the jacket acclimation.
Animals were catheterized the day prior to dose administration. A percutaneous catheter was placed (using aseptic technique and sterile bandaging) in the cephalic vein distal to the elbow. The animals were free-moving in their cages during continuous infusion dose administration. To facilitate continuous infusion dose administration, the peripheral catheter was attached to an extension set routed underneath a canine jacket and then attached to a tether infusion system. To prevent the animals from accessing/removing the peripherally placed percutaneous catheter, the catheterization site was bandaged using Vet Wrap and an e-collar was placed on the animals for the duration of the treatment (i.e., the catheterized period). During the pretreatment period, the venous catheter was infused continuously at a rate of approximately 2-4 mL/hr with 0.9% sodium chloride for injection, USP (saline) to maintain catheter patency. Prior to dosing, the infusion system was pre-filled (slow bolus infusion) with the respective dosing solution to ensure that dosing began as soon as the infusion pump was started. The infusion line was connected to a reservoir containing the control or test compound and the infusion was started. Test compositions were infused continuously, at a predetermined constant infusion rate (1 or 2 mL/kg/hr), for 24 hours and were compared at molar equivalent dose rates.
A detailed clinical examination of each animal was performed twice daily and body temperature measurements and blood samples for clinical pathology were collected from all animals pre-dose and 6 hours, 12 hours, 24 hours and 72 hours post start of composition infusion. At the termination of the study, all animals were euthanized at their scheduled necropsy and complete necropsy examinations were performed. Selected tissues were collected, fixed and stored for potential future microscopic examination. The cephalic vein containing the infusion catheter was dissected intact along with the brachial vein and examined along its entire length. The location of the catheter tip was marked on the unfixed specimen. […]

[1] = Solubility by visual assessment in pH 4 buffer; assay type: physicochemical; conditions: pH 4 citrate buffer, pH 4, aqueous buffer, thermodynamic from solid, shaken 5 minutes
Description: Initially, the solubilities of the compounds of formula (1) and formula (2) were measured by visual assessment at 100 μg/mL and 1000 μg/mL in a pH 4 buffer. The buffer was prepared by mixing 660 mL of Solution A (10.5023 g of citric acid dissolved in 1 L of water) and […] of Solution B (14.7010 g of sodium citrate tribasic dihydrate dissolved in 1 L of water). The pH of the buffer was 3.98 as measured by pH meter. Each compound was shaken for about 5 minutes in the pH 4 buffer solution prepared above at two concentration points (100 μg/mL and 1000 μg/mL) and the solubility was observed visually.

[2] = In vitro stability (half-life) in rat plasma; assay type: in vitro ADME; conditions: male, rat plasma pH 7.4, anticoagulant, 37° C., read-out: T1/2 (minutes) Rat
Description: Compound (1), compound (2), and CXL-1020 were tested for their stability in plasma. The assay system comprised (i) PBS, or plasma from rat, dog or human (at least 3 donors, male, pooled) at pH 7.4, and (ii) for tests conducted in plasma, an anticoagulant (sodium heparin or sodium citrate). Each test compound (5 μM) was incubated in PBS or plasma at 37° C. on a THERMOMIXER® with shaking Three samples (n=3) were taken at each of seven sampling time points: 0, 10, 30, 60, 90, 180 and 360 minutes. The samples were immediately combined with 3 volumes (i.e., 3 times the volume of PBS or plasma) of acetonitrile containing 1% formic acid and an internal standard to terminate the reaction. AB SCIEX API 3000 LC-MS/MS analysis of the test compounds was performed without a standard curve. Half-lives (T1/2) of the test compounds were determined from graphs of the percent remaining values using the peak area response ratio.

[3] = 100 μg/mL, read-out: Solubility (100 μg/mL)
[4] = 1000 μg/mL, read-out: Solubility (1000 μg/mL)
[5] = dogs, percutaneous catheter in cephalic vein

SMILES	NOAEL (μg/kg/min), clinical pathology markers (beagle dogs; dogs) [μg/kg/min]	solubility at 5 min [1, 3] [µg/mL]	solubility at 5 min [1, 4] [µg/mL]	half-life at 5 μM [2] [min]	finding after 6 hours of infusion (beagle dogs; [5])	microscopic pathology after 24 hours of infusion (beagle dogs; [5])	improvement in NOAEL relative to CXL-1020 (beagle dogs; clinical pathology markers) [fold]
CS(=O)(=O)c1cccc(S(=O)(=O)NO)c1 [(2), N-Hydroxy-3-methanesulfonylbenzene-1-sulfonamide]	3	> 100	> 1000	20			
CS(=O)(=O)c1ccccc1S(=O)(=O)NO [CXL-1020, N-hydroxy-2-methanesulfonylbenzene-1-sulfonamide]	<0.03				significant edema was observed in the upper forelimb	severe thrombophlebitis at the catheter tip	
Cc1ccc(S(=O)(=O)NO)o1 [Compound (1), N-Hydroxy-5-methylfuran-2-sulfonamide]		> 100	> 1000	40			> 660
